Test results taken from patent US9981959B2, “Thiazolyl and oxazolyl urea, thiourea, guanidine and cyanoguanidine compounds as TrkA kinase inhibitors” (Array BioPharma Inc., priority 2012, dated 2018).

What was measured:
Assay in all cases: KinaseProfiler off-target kinase profiling
Assay type in all cases: biochemical
Settings in all cases: 10 μM, ATP near Km
IKKalpha = molecular target: T1, IKKalpha (Homo sapiens, UniProt O15111)
T1 construct: purchased Millipore, Inc. (KinaseProfiler service)
Description: (§1) A representative compound of the invention (Example 2) was tested for off-target kinase activity at a concentration of 10 μM by Millipore, Inc. in their KinaseProfiler™ service against all the kinases available in their full kinase panel. The compound was run in duplicate at a concentration of ATP near the Km for each individual kinase according to Millipore's specifications. The results are shown in Table B. Data are reported as percent of control (POC) and are the average of the two replicates.

MAP4K2 = molecular target: T2, MAP4K2 (Homo sapiens, UniProt Q12851)
T2 construct: purchased Millipore, Inc. (KinaseProfiler service)
Description: as §1

PDK1 = molecular target: T3, PDK1 (Homo sapiens, UniProt O15530)
T3 construct: purchased Millipore, Inc. (KinaseProfiler service)
Description: as §1

MAPKAP-K3 = molecular target: T4, MAPKAP-K3 (Homo sapiens, UniProt Q16644)
T4 construct: purchased Millipore, Inc. (KinaseProfiler service)
Description: as §1

PKCbetaI = molecular target: T5, PKCbetaI (Homo sapiens, UniProt P05771)
T5 construct: purchased Millipore, Inc. (KinaseProfiler service)
Description: as §1

PAK2 = molecular target: T6, PAK2 (Homo sapiens, UniProt Q13177)
T6 construct: purchased Millipore, Inc. (KinaseProfiler service)
T6 sequence (Q13177 whole entry): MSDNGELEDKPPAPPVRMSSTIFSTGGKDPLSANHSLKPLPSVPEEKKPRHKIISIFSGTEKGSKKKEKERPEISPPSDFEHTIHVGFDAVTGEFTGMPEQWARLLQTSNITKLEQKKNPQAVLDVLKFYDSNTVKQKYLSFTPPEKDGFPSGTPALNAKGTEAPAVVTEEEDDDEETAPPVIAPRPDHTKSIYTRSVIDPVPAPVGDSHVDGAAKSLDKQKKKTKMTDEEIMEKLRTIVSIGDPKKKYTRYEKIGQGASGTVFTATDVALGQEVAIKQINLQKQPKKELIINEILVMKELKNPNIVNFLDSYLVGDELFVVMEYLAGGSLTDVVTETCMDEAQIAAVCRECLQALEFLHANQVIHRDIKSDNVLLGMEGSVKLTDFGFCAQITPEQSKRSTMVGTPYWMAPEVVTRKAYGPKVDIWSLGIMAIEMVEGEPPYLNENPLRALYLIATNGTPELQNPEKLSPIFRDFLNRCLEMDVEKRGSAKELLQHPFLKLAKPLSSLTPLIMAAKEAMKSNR
Description: as §1

CHK1 = molecular target: T7, CHK1 (Homo sapiens, UniProt O14757)
T7 construct: purchased Millipore, Inc. (KinaseProfiler service)
Description: as §1

HIPK1 = molecular target: T8, HIPK1 (Homo sapiens, UniProt Q86Z02)
T8 construct: purchased Millipore, Inc. (KinaseProfiler service)
Description: as §1

LOK = molecular target: T9, LOK (Homo sapiens, UniProt O94804)
T9 construct: purchased Millipore, Inc. (KinaseProfiler service)
Description: as §1

FGFR1 = molecular target: T10, FGFR1 (Homo sapiens, UniProt P11362)
T10 construct: purchased Millipore, Inc. (KinaseProfiler service)
Description: as §1

JAK2 = molecular target: T11, JAK2 (Homo sapiens, UniProt O60674)
T11 construct: purchased Millipore, Inc. (KinaseProfiler service)
Description: as §1

Txk = molecular target: T12, Txk (Homo sapiens, UniProt P42681)
T12 construct: purchased Millipore, Inc. (KinaseProfiler service)
Description: as §1

DAPK3 = molecular target: T13, DAPK3 (Homo sapiens, UniProt O43293)
T13 construct: purchased Millipore, Inc. (KinaseProfiler service)
T13 sequence (O43293 whole entry): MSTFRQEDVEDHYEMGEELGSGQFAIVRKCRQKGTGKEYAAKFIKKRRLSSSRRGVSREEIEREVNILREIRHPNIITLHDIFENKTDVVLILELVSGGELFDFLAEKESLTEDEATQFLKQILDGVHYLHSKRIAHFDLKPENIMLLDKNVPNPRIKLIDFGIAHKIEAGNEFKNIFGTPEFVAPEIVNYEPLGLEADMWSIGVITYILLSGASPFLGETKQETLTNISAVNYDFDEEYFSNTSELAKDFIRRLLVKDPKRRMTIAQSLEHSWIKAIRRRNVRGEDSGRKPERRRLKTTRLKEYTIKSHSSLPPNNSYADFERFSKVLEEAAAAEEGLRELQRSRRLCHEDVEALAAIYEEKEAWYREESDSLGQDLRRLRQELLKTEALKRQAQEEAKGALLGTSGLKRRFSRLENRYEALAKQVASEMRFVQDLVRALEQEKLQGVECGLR
Description: as §1

MARK1 = molecular target: T14, MARK1 (Homo sapiens, UniProt Q9P0L2)
T14 construct: purchased Millipore, Inc. (KinaseProfiler service)
Description: as §1

DMPK = molecular target: T15, DMPK (Homo sapiens, UniProt Q09013)
T15 construct: purchased Millipore, Inc. (KinaseProfiler service)
T15 sequence (Q09013 whole entry): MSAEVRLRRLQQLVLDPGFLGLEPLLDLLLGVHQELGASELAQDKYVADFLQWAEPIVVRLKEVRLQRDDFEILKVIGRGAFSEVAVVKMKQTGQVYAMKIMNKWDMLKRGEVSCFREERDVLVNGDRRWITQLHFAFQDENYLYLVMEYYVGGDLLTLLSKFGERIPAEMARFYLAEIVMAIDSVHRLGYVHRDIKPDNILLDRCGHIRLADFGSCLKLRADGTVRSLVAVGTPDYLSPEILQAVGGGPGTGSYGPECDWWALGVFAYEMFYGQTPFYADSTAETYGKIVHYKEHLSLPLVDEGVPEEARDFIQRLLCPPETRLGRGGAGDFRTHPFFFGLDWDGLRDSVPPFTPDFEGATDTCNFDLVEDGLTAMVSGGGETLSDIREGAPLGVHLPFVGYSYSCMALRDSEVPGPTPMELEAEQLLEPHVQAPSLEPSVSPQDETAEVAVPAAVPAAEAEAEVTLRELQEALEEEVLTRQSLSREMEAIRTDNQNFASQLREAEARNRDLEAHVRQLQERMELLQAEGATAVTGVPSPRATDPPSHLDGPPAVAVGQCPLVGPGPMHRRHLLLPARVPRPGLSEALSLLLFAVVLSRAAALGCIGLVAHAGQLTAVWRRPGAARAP
Description: as §1

SRPK1 = molecular target: T16, SRPK1 (Homo sapiens, UniProt Q96SB4)
T16 construct: purchased Millipore, Inc. (KinaseProfiler service)
Description: as §1

PKD1 = molecular target: T17, PKD1 (Homo sapiens, UniProt Q15139)
T17 construct: purchased Millipore, Inc. (KinaseProfiler service)
Description: as §1

PKCtheta = molecular target: T18, PKCtheta (Homo sapiens, UniProt Q04759)
T18 construct: purchased Millipore, Inc. (KinaseProfiler service)
Description: as §1

KDR = molecular target: T19, KDR (Homo sapiens, UniProt P35968)
T19 construct: purchased Millipore, Inc. (KinaseProfiler service)
Description: as §1

MKK4_m = molecular target: T20, MKK4_m (Mus musculus, UniProt P47809)
T20 construct: purchased Millipore, Inc. (KinaseProfiler service)
Description: as §1

IRR = molecular target: T21, IRR (Homo sapiens, UniProt P14616)
T21 construct: purchased Millipore, Inc. (KinaseProfiler service)
T21 sequence (P14616 27-1297): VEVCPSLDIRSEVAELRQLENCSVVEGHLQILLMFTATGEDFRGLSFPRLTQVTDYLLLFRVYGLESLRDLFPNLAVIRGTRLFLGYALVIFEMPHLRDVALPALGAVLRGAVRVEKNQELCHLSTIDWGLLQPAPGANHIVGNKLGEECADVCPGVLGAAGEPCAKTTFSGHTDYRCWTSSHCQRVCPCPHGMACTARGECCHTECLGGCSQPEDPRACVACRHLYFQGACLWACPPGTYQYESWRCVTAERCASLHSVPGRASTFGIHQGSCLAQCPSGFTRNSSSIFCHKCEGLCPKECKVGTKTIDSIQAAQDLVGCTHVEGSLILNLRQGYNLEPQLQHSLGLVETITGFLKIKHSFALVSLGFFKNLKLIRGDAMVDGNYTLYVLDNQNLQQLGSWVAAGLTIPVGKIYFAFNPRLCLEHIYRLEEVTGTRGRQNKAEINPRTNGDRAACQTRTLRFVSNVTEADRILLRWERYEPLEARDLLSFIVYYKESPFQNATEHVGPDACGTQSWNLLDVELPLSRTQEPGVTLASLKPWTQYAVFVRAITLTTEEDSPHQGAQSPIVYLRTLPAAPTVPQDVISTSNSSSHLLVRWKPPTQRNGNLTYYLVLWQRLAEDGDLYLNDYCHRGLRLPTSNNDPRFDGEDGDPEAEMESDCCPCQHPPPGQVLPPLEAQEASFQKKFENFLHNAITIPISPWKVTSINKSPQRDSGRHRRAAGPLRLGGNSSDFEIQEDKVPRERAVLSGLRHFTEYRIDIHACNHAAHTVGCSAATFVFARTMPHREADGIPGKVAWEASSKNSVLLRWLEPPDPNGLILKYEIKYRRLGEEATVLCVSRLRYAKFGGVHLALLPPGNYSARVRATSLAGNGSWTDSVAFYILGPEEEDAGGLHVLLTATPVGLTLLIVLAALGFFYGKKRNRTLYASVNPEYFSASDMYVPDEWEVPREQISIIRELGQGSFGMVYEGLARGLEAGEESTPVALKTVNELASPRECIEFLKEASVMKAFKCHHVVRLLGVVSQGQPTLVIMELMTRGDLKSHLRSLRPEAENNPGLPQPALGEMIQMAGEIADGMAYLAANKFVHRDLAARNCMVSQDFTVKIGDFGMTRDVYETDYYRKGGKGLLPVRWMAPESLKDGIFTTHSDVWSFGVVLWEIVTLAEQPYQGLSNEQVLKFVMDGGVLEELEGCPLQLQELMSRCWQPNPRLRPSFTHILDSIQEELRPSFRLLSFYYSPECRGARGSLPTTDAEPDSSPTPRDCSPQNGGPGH
Description: as §1

PKCalpha = molecular target: T22, PKCalpha (Homo sapiens, UniProt P17252)
T22 construct: purchased Millipore, Inc. (KinaseProfiler service)
Description: as §1

CDK3/cyclinE = molecular target: T23, CDK3/cyclinE (Homo sapiens, UniProt Q00526)
T23 construct: purchased Millipore, Inc. (KinaseProfiler service)
Description: as §1

TAO3 = molecular target: T24, TAO3 (Homo sapiens, UniProt Q9H2K8)
T24 construct: purchased Millipore, Inc. (KinaseProfiler service)
T24 sequence (Q9H2K8 whole entry): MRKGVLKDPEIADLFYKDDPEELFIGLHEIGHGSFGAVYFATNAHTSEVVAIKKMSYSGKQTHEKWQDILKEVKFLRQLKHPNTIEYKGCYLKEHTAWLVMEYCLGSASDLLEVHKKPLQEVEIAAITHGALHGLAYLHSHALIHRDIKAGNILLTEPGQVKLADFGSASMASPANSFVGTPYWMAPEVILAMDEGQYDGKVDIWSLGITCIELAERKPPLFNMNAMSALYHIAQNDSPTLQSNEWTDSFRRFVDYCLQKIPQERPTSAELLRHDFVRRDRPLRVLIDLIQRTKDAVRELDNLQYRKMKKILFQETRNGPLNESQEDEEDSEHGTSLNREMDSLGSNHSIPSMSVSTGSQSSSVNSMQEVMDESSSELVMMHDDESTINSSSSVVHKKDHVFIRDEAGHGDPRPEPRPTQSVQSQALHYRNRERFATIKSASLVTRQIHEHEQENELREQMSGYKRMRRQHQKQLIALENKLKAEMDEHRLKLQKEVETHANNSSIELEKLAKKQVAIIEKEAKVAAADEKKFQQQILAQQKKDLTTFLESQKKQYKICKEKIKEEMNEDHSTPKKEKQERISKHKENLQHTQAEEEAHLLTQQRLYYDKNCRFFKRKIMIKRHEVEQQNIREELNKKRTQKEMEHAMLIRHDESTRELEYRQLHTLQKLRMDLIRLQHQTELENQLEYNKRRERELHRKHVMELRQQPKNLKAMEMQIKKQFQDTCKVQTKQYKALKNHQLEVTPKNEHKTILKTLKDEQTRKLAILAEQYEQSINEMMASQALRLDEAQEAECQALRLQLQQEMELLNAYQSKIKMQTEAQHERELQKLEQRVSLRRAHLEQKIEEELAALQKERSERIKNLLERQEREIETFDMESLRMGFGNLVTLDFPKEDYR
Description: as §1

FGFR3 = molecular target: T25, FGFR3 (Homo sapiens, UniProt P22607)
T25 construct: purchased Millipore, Inc. (KinaseProfiler service)
Description: as §1

MYLK = molecular target: T26, MYLK (Homo sapiens, UniProt Q15746)
T26 construct: purchased Millipore, Inc. (KinaseProfiler service)
Description: as §1

MST2 = molecular target: T27, MST2 (Homo sapiens, UniProt Q13188)
T27 construct: purchased Millipore, Inc. (KinaseProfiler service)
Description: as §1

CK2alpha2 = molecular target: T28, CK2alpha2 (Homo sapiens, UniProt P19784)
T28 construct: purchased Millipore, Inc. (KinaseProfiler service)
T28 sequence (P19784 whole entry): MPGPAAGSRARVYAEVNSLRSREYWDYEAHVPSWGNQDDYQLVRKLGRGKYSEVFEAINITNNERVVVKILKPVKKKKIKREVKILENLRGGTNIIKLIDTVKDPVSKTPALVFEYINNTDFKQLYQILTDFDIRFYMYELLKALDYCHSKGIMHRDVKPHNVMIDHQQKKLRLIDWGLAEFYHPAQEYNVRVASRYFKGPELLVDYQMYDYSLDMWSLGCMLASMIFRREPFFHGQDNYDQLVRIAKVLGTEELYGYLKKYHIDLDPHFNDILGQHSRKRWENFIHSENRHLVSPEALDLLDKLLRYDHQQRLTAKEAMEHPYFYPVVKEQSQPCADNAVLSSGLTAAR
Description: as §1

TAO1 = molecular target: T29, TAO1 (Homo sapiens, UniProt Q7L7X3)
T29 construct: purchased Millipore, Inc. (KinaseProfiler service)
Description: as §1

MSK1 = molecular target: T30, MSK1 (Homo sapiens, UniProt O75582)
T30 construct: purchased Millipore, Inc. (KinaseProfiler service)
Description: as §1

EphA4 = molecular target: T31, EphA4 (Homo sapiens, UniProt P54764)
T31 construct: purchased Millipore, Inc. (KinaseProfiler service)
Description: as §1

MINK = molecular target: T32, MINK (Homo sapiens, UniProt Q8N4C8)
T32 construct: purchased Millipore, Inc. (KinaseProfiler service)
Description: as §1

PKCdelta = molecular target: T33, PKCdelta (Homo sapiens, UniProt Q05655)
T33 construct: purchased Millipore, Inc. (KinaseProfiler service)
Description: as §1

Abl-P = molecular target: T34, Abl-P (Homo sapiens, UniProt P00519)
T34 construct: purchased Millipore (KinaseProfiler service)
Description: as §1

BTK = molecular target: T35, BTK (Homo sapiens, UniProt Q06187)
T35 construct: purchased Millipore (KinaseProfiler service)
Description: as §1

ROCK-I = molecular target: T36, ROCK-I (Homo sapiens, UniProt Q13464)
T36 construct: purchased Millipore, Inc. (KinaseProfiler service)
Description: as §1

EphB3 = molecular target: T37, EphB3 (Homo sapiens, UniProt P54753)
T37 construct: purchased Millipore, Inc. (KinaseProfiler service)
Description: as §1

FGFR2 = molecular target: T38, FGFR2 (Homo sapiens, UniProt P21802)
T38 construct: purchased Millipore, Inc. (KinaseProfiler service)
Description: as §1

CDK2/cyclinE = molecular target: T39, CDK2/cyclinE (Homo sapiens, UniProt P24941)
T39 construct: purchased Millipore, Inc. (KinaseProfiler service)
Description: as §1

TEC Activated = molecular target: T40, TEC Activated (Homo sapiens, UniProt P42680)
T40 construct: purchased Millipore, Inc. (KinaseProfiler service)
T40 sequence (P42680 whole entry): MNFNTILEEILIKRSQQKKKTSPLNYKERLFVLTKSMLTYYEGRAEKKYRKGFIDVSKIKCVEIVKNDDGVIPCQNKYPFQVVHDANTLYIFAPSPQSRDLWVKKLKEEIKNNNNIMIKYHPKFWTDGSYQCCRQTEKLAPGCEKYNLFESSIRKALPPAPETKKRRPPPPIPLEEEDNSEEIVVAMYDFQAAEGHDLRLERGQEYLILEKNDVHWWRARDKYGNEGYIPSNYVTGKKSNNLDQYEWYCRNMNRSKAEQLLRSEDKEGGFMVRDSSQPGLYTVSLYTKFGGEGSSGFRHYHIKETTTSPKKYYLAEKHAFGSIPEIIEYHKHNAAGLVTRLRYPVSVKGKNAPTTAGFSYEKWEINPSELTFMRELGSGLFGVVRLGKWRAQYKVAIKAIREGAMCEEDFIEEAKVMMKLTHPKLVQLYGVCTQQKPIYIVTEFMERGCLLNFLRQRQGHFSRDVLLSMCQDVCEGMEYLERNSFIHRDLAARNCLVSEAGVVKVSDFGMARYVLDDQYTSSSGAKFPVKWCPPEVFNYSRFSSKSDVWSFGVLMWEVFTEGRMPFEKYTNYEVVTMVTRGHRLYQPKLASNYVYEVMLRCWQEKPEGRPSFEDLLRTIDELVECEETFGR
Description: as §1

ITK = molecular target: T41, ITK (Homo sapiens, UniProt Q08881)
T41 construct: purchased Millipore, Inc. (KinaseProfiler service)
Description: as §1

Avg POC (IKKalpha): 133 POC
Avg POC (MAP4K2): 121.5 POC
Avg POC (PDK1): 115 POC
Avg POC (MAPKAP-K3): 116 POC
Avg POC (PKCbetaI): 102 POC
Avg POC (PAK2): 98.5 POC
Avg POC (CHK1): 126.5 POC
Avg POC (HIPK1): 108 POC
Avg POC (LOK): 110.5 POC
Avg POC (FGFR1): 80.5 POC
Avg POC (JAK2): 147.5 POC
Avg POC (Txk): 163 POC
Avg POC (DAPK3): 120 POC
Avg POC (MARK1): 107 POC
Avg POC (DMPK): 107.5 POC
Avg POC (SRPK1): 114 POC
Avg POC (PKD1): 97.5 POC
Avg POC (PKCtheta): 130 POC
Avg POC (KDR): 126 POC
Avg POC (MKK4_m): 73.5 POC
Avg POC (IRR): 109 POC
Avg POC (PKCalpha): 102.5 POC
Avg POC (CDK3/cyclinE): 105 POC
Avg POC (TAO3): 94 POC
Avg POC (FGFR3): 117 POC
Avg POC (MYLK): 99 POC
Avg POC (MST2): 109 POC
Avg POC (CK2alpha2): 104 POC
Avg POC (TAO1): 103.5 POC
Avg POC (MSK1): 151 POC
Avg POC (EphA4): 109 POC
Avg POC (MINK): 117.5 POC
Avg POC (PKCdelta): 97 POC
Avg POC (Abl-P): 148 POC
Avg POC (BTK): 123 POC
Avg POC (ROCK-I): 113 POC
Avg POC (EphB3): 72.5 POC
Avg POC (FGFR2): 116.5 POC
Avg POC (CDK2/cyclinE): 100 POC
Avg POC (TEC Activated): 131 POC
Avg POC (ITK): 125.5 POC
Structure (SMILES): Cc1c(-c2cnn(C)c2)nn(-c2ccccc2)c1NC(=O)Nc1sc(C(F)(F)F)nc1-c1ccccc1 [Example 2, 1-(1′,4-dimethyl-1-phenyl-1H,1′H-[3,4′-bipyrazol]-5-yl)-3-(4-phenyl-2-(trifluoromethyl)thiazol-5-yl)urea]
